Assay results as given in ChEMBL document CHEMBL3879915, “Methods of inhibiting PRMT5” (2014).

Experiments:
PRMT5/MEP50 complex = PRMT5/MEP50 complex (Homo sapiens, UniProt O14744); assay: Inhibition of recombinant human fetal brain FLAG-tagged PRMT5/full length human testis 6His-tagged MEP50 expressed in baculovirus infected insect Sf9 cells using human histone H4 (1 to 15 residues) as substrate preincubated for 30 mins followed by [3H]-SAM addition
[1] = target: Protein arginine N-methyltransferase 5 (Homo sapiens, UniProt O14744); assay: Inhibition of PRMT5 in human Z138 cells assessed as decrease in di-methyl arginine levels after 96 hrs by Western blot method; format: cell-based
Sequence of Protein arginine N-methyltransferase 5 (O14744 whole entry): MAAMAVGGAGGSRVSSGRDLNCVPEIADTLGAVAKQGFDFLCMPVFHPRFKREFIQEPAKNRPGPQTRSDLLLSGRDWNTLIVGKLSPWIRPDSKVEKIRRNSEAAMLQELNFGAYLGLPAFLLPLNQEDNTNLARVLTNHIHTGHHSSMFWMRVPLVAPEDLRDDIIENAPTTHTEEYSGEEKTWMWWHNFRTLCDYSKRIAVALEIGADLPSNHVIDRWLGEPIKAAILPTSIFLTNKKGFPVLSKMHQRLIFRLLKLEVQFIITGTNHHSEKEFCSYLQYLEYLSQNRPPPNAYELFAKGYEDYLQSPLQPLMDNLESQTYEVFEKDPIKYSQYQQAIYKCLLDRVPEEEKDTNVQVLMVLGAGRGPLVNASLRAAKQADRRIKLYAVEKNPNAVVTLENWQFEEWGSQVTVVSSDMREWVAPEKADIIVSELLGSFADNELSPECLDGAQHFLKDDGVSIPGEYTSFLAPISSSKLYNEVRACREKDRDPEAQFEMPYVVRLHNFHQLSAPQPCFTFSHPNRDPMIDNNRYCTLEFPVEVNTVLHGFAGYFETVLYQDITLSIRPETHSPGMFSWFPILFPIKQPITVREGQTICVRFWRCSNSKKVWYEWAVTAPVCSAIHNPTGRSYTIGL

[2] = Antiproliferative activity against human Z138 cells assessed as inhibition of cell viability after 5 days by Cell-Titer Glo assay; format: functional, cell-based; details: Z-138, 120 h

Sequence of PRMT5/MEP50 complex (O14744 whole entry, the tested form may be a part): as the sequence (O14744 whole entry) above
Sequence of PRMT5/MEP50 complex (Q9BQA1 whole entry, further chain, the tested form may be a part): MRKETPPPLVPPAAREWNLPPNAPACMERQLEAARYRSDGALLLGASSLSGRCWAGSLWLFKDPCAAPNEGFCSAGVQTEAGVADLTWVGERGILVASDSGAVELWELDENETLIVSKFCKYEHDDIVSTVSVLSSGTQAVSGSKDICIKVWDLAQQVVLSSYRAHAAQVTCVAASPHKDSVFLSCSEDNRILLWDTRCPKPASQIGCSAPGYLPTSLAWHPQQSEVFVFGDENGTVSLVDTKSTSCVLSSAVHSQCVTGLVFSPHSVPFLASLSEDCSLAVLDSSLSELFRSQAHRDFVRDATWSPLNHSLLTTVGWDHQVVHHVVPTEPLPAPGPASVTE

Structure (SMILES)	IC50 (PRMT5/MEP50 complex) [nM]	EC50 [1] [nM]	EC50 [2] [µM]
NC(=O)c1cccc(-c2cccc(OCC(O)CN3CCc4ccccc4C3)c2)c1 (centres undefined)	101 to 1000	1000 to 10000	> 20
O=C(COc1cccc2cccnc12)NC[C@@H](O)CN1CCc2ccccc2C1	< 100	< 100	0.101 to 1
O=C(NCC(O)CN1CCc2ccccc2C1)c1cccc(NC2CCOCC2)c1 (centres undefined)	< 100	< 100	0.101 to 1
CNC(=O)Cn1ccc2cnc(-c3ccnc(NCC(O)CN4CCc5ccccc5C4)c3)nc21 (centres undefined)	< 100	101 to 1000	1 to 10
O=C(COc1cccc(F)c1)NCC(O)CN1CCc2ccccc2C1 (centres undefined)	101 to 1000	101 to 1000	10 to 50
OC(COc1cccc(-c2ncc3ccn(C4CCNCC4)c3n2)c1)CN1CCc2ccccc2C1 (centres undefined)	< 100	101 to 1000	1 to 10
COc1ccccc1OCC(=O)NCC(O)CN1CCc2ccccc2C1 (centres undefined)	< 100	101 to 1000	1 to 10
Cn1ccc2ccc(-c3cccc(OCC(O)CN4CCc5ccccc5C4)c3)cc21 (centres undefined)	101 to 1000	1000 to 10000	10 to 40
CN(C)c1ccc2cccc(OCC(=O)NC[C@H](O)CN3CCc4ccccc4C3)c2n1	101 to 1000	1000 to 10000	> 20
O=C1NCc2ccc(-c3cccc(OCC(O)CN4CCc5ccccc5C4)c3)cc21 (centres undefined)	101 to 1000	1000 to 10000	10 to 40
Cn1cnc2ccc(-c3ccnc(NC[C@@H](O)CN4CCc5ccccc5C4)c3)cc21	101 to 1000	1000 to 10000	1 to 10
O=C(Cn1ccc2cnc(-c3ccnc(NCC(O)CN4CCc5ccccc5C4)c3)nc21)N1CCCC1 (centres undefined)	< 100	< 100	1 to 10
O=C(COc1cccc2c1OCC(=O)N2)NCC(O)CN1CCc2ccccc2C1 (centres undefined)	1000 to 10000	1000 to 10000	> 20
O=C(COc1cccc(NC2CCOCC2)c1)NCC(O)CN1CCc2ccccc2C1 (centres undefined)	< 100	< 100	1 to 10
O=C(COc1ccccc1-c1cc[nH]n1)NC[C@@H](O)CN1CCc2ccccc2C1	< 100	< 100	1 to 10
CN(CC(O)CN1CCc2ccccc2C1)c1cccc(CNC2CCCC2)c1 (centres undefined)	101 to 1000	101 to 1000	10 to 40
COc1ccc(-c2cccc(OCC(O)CN3CCc4ccccc4C3)c2)cc1Cl (centres undefined)	101 to 1000	10000 to 40000	> 20
O=C(COc1ccccc1S(=O)(=O)N1CCNCC1)NCC(O)CN1CCc2ccccc2C1 (centres undefined)	< 100	< 100	1 to 10
OC(CNc1cc(-c2ncc3ccn(C4CNC4)c3n2)ccn1)CN1CCc2ccccc2C1 (centres undefined)	< 100	101 to 1000	1 to 10

Structure (SMILES)	IC50 (PRMT5/MEP50 complex) [nM]	EC50 [1] [nM]	EC50 [2] [µM]
OC(CNc1cccc(-c2cccc3[nH]cnc23)c1)CN1CCc2ccccc2C1 (centres undefined)	101 to 1000	101 to 1000	10 to 40
Cn1cnc2ccc(-c3cccc(NCC(O)CN4CCc5ccccc5C4)n3)cc21 (centres undefined)	101 to 1000	1000 to 10000	> 20
O=C(Cn1ccc2cnc(-c3cccc(OCC(O)CN4CCc5ccccc5C4)c3)nc21)N1CCOCC1 (centres undefined)	101 to 1000	101 to 1000	10 to 40
CN(C)S(=O)(=O)c1ccccc1OCC(=O)NCC(O)CN1CCc2ccccc2C1 (centres undefined)	< 100	< 100	0.101 to 1
N#Cc1ccccc1-c1cccc(OCC(O)CN2CCc3ccccc3C2)c1 (centres undefined)	101 to 1000	1000 to 10000	10 to 40
O=C1CN(c2ccccc2Cl)CCN1CC(O)CN1CCc2ccccc2C1 (centres undefined)	101 to 1000	101 to 1000	10 to 50
CS(=O)(=O)Nc1ccc(C(=O)NCC(O)CN2CCc3ccccc3C2)cc1 (centres undefined)	101 to 1000	101 to 1000	10 to 50
Cn1cnc2ccc(-c3cccc(OC[C@H](O)CN4CCc5ccccc5C4)c3)cc21	< 100	101 to 1000	1 to 10
CN1CCC(n2cnc3ccc(-c4cccc(OCC(O)CN5CCc6ccccc6C5)c4)cc32)C1 (centres undefined)	< 100	101 to 1000	1 to 10
COC(COc1cccc(CNC2CCCC2)c1)CN1CCc2ccccc2C1 (centres undefined)	1000 to 10000	> 20000	> 40
OC(COc1cccc(-c2ccccc2Cl)c1)CN1CCc2ccccc2C1 (centres undefined)	101 to 1000	1000 to 10000	10 to 40
CN(C)C(=O)c1ccccc1OCC(=O)NCC(O)CN1CCc2ccccc2C1 (centres undefined)	101 to 1000	101 to 1000	10 to 50
CC(Oc1ccccc1S(C)(=O)=O)C(=O)NCC(O)CN1CCc2ccccc2C1 (centres undefined)	101 to 1000	1000 to 10000	> 20
O=C(COc1ccccc1-c1ncc[nH]1)NCC(O)CN1CCc2ccccc2C1 (centres undefined)	101 to 1000	1000 to 10000	> 20
CS(=O)(=O)c1ccc(-c2cccc(OCC(O)CN3CCc4ccccc4C3)c2)cc1 (centres undefined)	101 to 1000	1000 to 10000	10 to 40
CN1CCC(c2ccccc2OCC(=O)NCC(O)CN2CCc3ccccc3C2)CC1 (centres undefined)	101 to 1000	1000 to 10000	> 20
Cn1cnc2ccc(-c3cncc(NCC(O)CN4CCc5ccccc5C4)n3)cc21 (centres undefined)	101 to 1000	101 to 1000	> 20
CS(=O)(=O)c1cccc(OCC(=O)NCC(O)CN2CCc3ccccc3C2)c1 (centres undefined)	< 100	101 to 1000	1 to 10
Cn1ccc2cnc(-c3cccc(OCC(O)CN4CCc5ccccc5C4)c3)nc21 (centres undefined)	< 100	101 to 1000	> 20

Further lines, with some results ahead:

IC50 (PRMT5/MEP50 complex) [nM]	EC50 [1] [nM]	Structure (SMILES)	EC50 [2] [µM]
< 100	< 100	Cn1cnc2ccc(-c3cncc(NCC(O)CN4CCc5ccccc5C4)c3)cc21 (centres undefined)	1 to 10
101 to 1000	101 to 1000	NS(=O)(=O)c1ccc(C(=O)NCC(O)CN2CCc3ccccc3C2)cc1 (centres undefined)	> 20
< 100	101 to 1000	Cn1cc2ccc(-c3cccc(OCC(O)CN4CCc5ccccc5C4)c3)nc2n1 (centres undefined)	10 to 40
< 100	< 100	CS(=O)(=O)c1ccccc1OCC(=O)NCC(O)CN1CCc2ccccc2C1 (centres undefined)	1 to 10
< 100	101 to 1000	O=C(NCC(O)CN1CCc2ccccc2C1)c1cccc(C2CCNC2)c1 (centres undefined)	> 20
< 100	< 100	O=C(COc1cccc2nccnc12)NCC(O)CN1CCc2ccccc2C1 (centres undefined)	1 to 10
< 100	101 to 1000	OC(CNc1cc(-c2ccc3ncn(C4COC4)c3c2)ccn1)CN1CCc2ccccc2C1 (centres undefined)	1 to 10
1000 to 10000	1000 to 10000	Cn1cnc(C(=O)Nc2cccc(OCC(O)CN3CCc4ccccc4C3)c2)c1 (centres undefined)	> 20
101 to 1000	1000 to 10000	N#Cc1cccc(-c2cccc(OCC(O)CN3CCc4ccccc4C3)c2)c1 (centres undefined)	> 20
101 to 1000	1000 to 10000	Cc1cn(C)c2cc(-c3cccc(OCC(O)CN4CCc5ccccc5C4)c3)ccc12 (centres undefined)	> 20
< 100	101 to 1000	CN(C)CCOc1ccccc1OCC(=O)NC[C@H](O)CN1CCc2ccccc2C1	10 to 50
< 100	101 to 1000	OC(CNc1cc(-c2ccc3ncn(C4CCOCC4)c3c2)ccn1)CN1CCc2ccccc2C1 (centres undefined)	1 to 10
< 100	101 to 1000	CC(C)(Oc1cccc2cccnc12)C(=O)NCC(O)CN1CCc2ccccc2C1 (centres undefined)	1 to 10
101 to 1000	1000 to 10000	Cn1cnc2c1CN(c1cccc(OCC(O)CN3CCc4ccccc4C3)c1)CC2 (centres undefined)	> 20
101 to 1000	1000 to 10000	CNCCOc1cccc(C(=O)NCC(O)CN2CCc3ccccc3C2)c1 (centres undefined)	> 20
101 to 1000	1000 to 10000	CC(C)(C)OCc1cccc(-c2cccc(OCC(O)CN3CCc4ccccc4C3)c2)c1 (centres undefined)	> 20
101 to 1000	101 to 1000	Cn1cnc2ccc(-c3cc(NCC(O)CN4CCc5ccccc5C4)ncn3)cc21 (centres undefined)	1 to 10
101 to 1000	1000 to 10000	O=C(c1cccc(-c2cccc(OCC(O)CN3CCc4ccccc4C3)c2)c1)N1CCCC1 (centres undefined)	10 to 40
101 to 1000	1000 to 10000	OC(COc1cccc(-c2cnc3ccccc3c2)c1)CN1CCc2ccccc2C1 (centres undefined)	10 to 40
101 to 10000	101 to 1000	C[C@H](Oc1cccc2cccnc12)C(=O)NC[C@@H](O)CN1Cc2ccccc2C1	> 20
101 to 1000	1000 to 10000	CN(C)c1ncccc1OCC(=O)NCC(O)CN1CCc2ccccc2C1 (centres undefined)	> 20
< 100	< 100	CC(Oc1cccc2cccnc12)C(=O)NCC(O)CN1CCc2ccccc2C1 (centres undefined)	0.101 to 1
101 to 1000	1000 to 10000	O=C(COc1cccc2ncc(=O)[nH]c12)NCC(O)CN1CCc2ccccc2C1 (centres undefined)	> 20
< 100	101 to 1000	O=C(NCC(O)CN1CCc2ccccc2C1)c1cccc(CN2CCNCC2)c1 (centres undefined)	1 to 10
< 100	< 100	O=C1CN(c2cccc(N3CCOCC3)c2)CCN1CC(O)CN1CCc2ccccc2C1 (centres undefined)	1 to 10
101 to 1000	10000 to 50000	Cc1ccc(OCC(=O)NCC(O)CN2CCc3ccccc3C2)cc1 (centres undefined)	10 to 50
< 100	101 to 1000	O=C1CN(c2cccc(F)c2)CCN1CC(O)CN1CCc2ccccc2C1 (centres undefined)	> 20
< 100	101 to 1000	O=C(COc1cccc2c1CCCC2)NCC(O)CN1CCc2ccccc2C1 (centres undefined)	1 to 10
< 100	1000 to 10000	Cc1ncc2ccc(-c3cccc(OCC(O)CN4CCc5ccccc5C4)c3)cn12 (centres undefined)	1 to 10
101 to 1000	1000 to 10000	OC(COc1cccc(-c2ccccc2C(F)(F)F)c1)CN1CCc2ccccc2C1 (centres undefined)	> 20
